Laboratory results from patent EP3290412A1, “HIV-1 NUCLEOCAPSID INHIBITORS” (Università degli Studi di Siena, priority 2016, dated 2018).

Legend:
[1] = target: T1, full length (1-55) HIV-1 NCp7 (Human immunodeficiency virus type 1 group M subtype B, UniProt P12493); test: Electromobility Shift Assay (EMSA), competition for ssDNA binding; details: NCp7 300 nM, M13mp18 ssDNA; positive = >25% inhibition at 100µM
T1 construct: recombinant full length (1-55) HIV-1 NCp7 proteins; made in house
Procedure, shortened: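 Recombinant NL4-3 NCp7 (300 nM in the pre-mix) was combined with compound in 20 mM Tris-HCl pH 7.4, 2 mM MgCl2, 100 mM NaCl, 1 mM DTT, then M13mp18 ssDNA was added for 25 min at 37 °C. Complexes were run on 1% agarose/0.5x TBE and stained with SybrGold. IC50 is the concentration at which bound ssDNA migrated 50% of the bound–unbound distance (triplicate).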

[2] = test system: HIV-1 reference strain NL4-3; test: BiCycle assay (MT-2 then TZM-bl cells); assay type: cell-based; details: Human immunodeficiency virus 1, NL43, TZM-bl, read-out: BiCycle IC50 nM
Procedure, shortened: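 MT-2 cells were infected with NL4-3 in the presence of five-fold compound dilutions. After 72 h, the supernatant was passed to TZM-bl cells. Two days later, luciferase luminescence was read and IC50 calculated, giving a readout that spans the whole replication cycle.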

[3] = test system: HIV-1 reference strain NL4-3; test: MonoCycle assay (TZM-bl cells); assay type: cell-based; details: Human immunodeficiency virus 1, NL43, TZM-bl, 48 h, read-out: Mono Cycle IC50 nM
Procedure, shortened: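 TZM-bl cells (20,000/well) were infected with NL4-3 in the presence of five-fold serial inhibitor dilutions. After 48 h, cells were lysed and luciferase luminescence (RLU) was counted. IC50 was derived from the RLU data.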

| SMILES | EMSA screening results [1] | IC50 [2] | IC50 [3] |
| --- | --- | --- | --- |
| COc1ccnc(-c2nc(O)c(O)c(C(=O)N[C@@H](C)C3CCCCC3)n2)c1 [Compound 69, N-[(1S)-1-cyclohexylethyl]-2-(4-methoxypyridin-2-yl)-5,6-bis(oxidanyl)pyrimidine-4-carboxamide] | Positive (A compound showing >25% inhibition when tested at 100µM concentration is considered as "positive") | 357 nM | > 50000 nM |
| C[C@@H](NC(=O)c1nc(-c2cc(N3CCN(C)CC3)ccn2)nc(O)c1O)C1CCCCC1 [Compound 76, (R)-N-(1-cyclohexylethyl)-5,6-dihydroxy-2-(4-(4-methylpiperazin-1-yl)pyridin-2-yl)pyrimidine-4-carboxamide] | Positive (A compound showing >25% inhibition when tested at 100µM concentration is considered as "positive") | 565 nM | 18300 nM |
| COc1ccnc(-c2nc(O)c(O)c(C(=O)NC3CCC(C)(C)CC3)n2)c1 [Compound 77, N-(4,4-dimethylcyclohexyl)-5,6-dihydroxy-2-(4-methoxypyridin-2-yl)pyrimidine-4-carboxamide] | Positive (A compound showing >25% inhibition when tested at 100µM concentration is considered as "positive") | 1170 nM | 17300 nM |
| C[C@H](NC(=O)c1nc(-c2cc(Cl)ccn2)nc(O)c1O)C1CCCCC1 [Compound 78, (S)-2-(4-chloropyridin-2-yl)-N-(1-cyclohexylethyl)-5,6-dihydroxypyrimidine-4-carboxamide] | Positive (A compound showing >25% inhibition when tested at 100µM concentration is considered as "positive") | 285 nM | 8740 nM |
| Cc1ccnc(-c2nc(O)c(O)c(C(=O)N[C@@H](C)C3CCCCC3)n2)c1 [Compound 79, (S)-N-(1-cyclohexylethyl)-5,6-dihydroxy-2-(4-methylpyridin-2-yl)pyrimidine-4-carboxamide] | Positive (A compound showing >25% inhibition when tested at 100µM concentration is considered as "positive") | 178 nM | 2350 nM |
| C[C@H](NC(=O)c1nc(-c2nccc3ccccc23)nc(O)c1O)C1CCCCC1 [Compound 80, (S)-N-(1-cyclohexylethyl)-5,6-dihydroxy-2-(isoquinolin-1-yl)pyrimidine-4-carboxamide] | Positive (A compound showing >25% inhibition when tested at 100µM concentration is considered as "positive") | 144 nM | 2850 nM |
| C[C@H](NC(=O)c1nc(-c2ccc(N)cn2)nc(O)c1O)C1CCCCC1 [Compound 81, (S)-2-(5-aminopyridin-2-yl)-N-(1-cyclohexylethyl)-5,6-dihydroxypyrimidine-4-carboxamide] | Positive (A compound showing >25% inhibition when tested at 100µM concentration is considered as "positive") | 222 nM | 2290 nM |
| C[C@H](NC(=O)c1nc(-c2nccc3[nH]ccc23)nc(O)c1O)C1CCCCC1 [Compound 86, (S)-N-(1-cyclohexylethyl)-5,6-dihydroxy-2-(1H-pyrrolo[3,2-c]pyridin-4-yl)pyrimidine-4-carboxamide] | Positive (A compound showing >25% inhibition when tested at 100µM concentration is considered as "positive") | 2280 nM | > 50000 nM |
| CC(NC(=O)c1nc(-c2cc(Cl)ccn2)nc(O)c1O)C1CCC(F)(F)CC1 (stereo not drawn) [Compound 87, 2-(4-chloropyridin-2-yl)-N-(1-(4,4-difluorocyclohexyl)ethyl)-5,6-dihydroxypyrimidine-4-carboxamide] | Negative | 1830 nM | > 50000 nM |
| C[C@@H](NC(=O)c1nc(-c2cc(CCN)ccn2)nc(O)c1O)C1CCCCC1 [Compound 88, (R)-2-(4-(2-aminoethyl)pyridin-2-yl)-N-(1-cyclohexylethyl)-5,6-dihydroxypyrimidine-4-carboxamide] | Positive (A compound showing >25% inhibition when tested at 100µM concentration is considered as "positive") | 12700 nM | > 50000 nM |
| CCNS(=O)(=O)c1ccc(-c2nc(O)c(O)c(C(=O)N[C@H](C)C3CCCCC3)n2)nc1 [Compound 89, (R)-N-(1-cyclohexylethyl)-2-(5-(N-ethylsulfamoyl)pyridin-2-yl)-5,6-dihydroxypyrimidine-4-carboxamide] | Negative | 10400 nM | > 50000 nM |
| C[C@@H](NC(=O)c1nc(-c2cc(CCNCc3cccn3C)ccn2)nc(O)c1O)C1CCCCC1 [Compound 91, (R)-N-(1-cyclohexylethyl)-5,6-dihydroxy-2-(4-(2-(((1-methyl-1H-pyrrol-2-yl)methyl)amino)ethyl)pyridin-2-yl)pyrimidine-4-carboxamide] | Positive (A compound showing >25% inhibition when tested at 100µM concentration is considered as "positive") | 1100 nM | 2150 nM |
| C[C@@H](NC(=O)c1nc(-c2cc(CCN(C)C)ccn2)nc(O)c1O)C1CCCCC1 [Compound 92, (R)-N-(1-cyclohexylethyl)-2-(4-(2-(dimethylamino)ethyl)pyridin-2-yl)-5,6-dihydroxypyrimidine-4-carboxamide] | Negative | 1400 nM | 6120 nM |
| C[C@@H](NC(=O)c1nc(-c2ccc(CN3CCCC3)cn2)nc(O)c1O)C1CCCCC1 [Compound 93, (R)-N-(1-cyclohexylethyl)-5,6-dihydroxy-2-(5-(pyrrolidin-1-ylmethyl)pyridin-2-yl)pyrimidine-4-carboxamide] | Negative | 1360 nM | > 50000 nM |
